Source: PubChem BioAssay AID1645865 (Buhrlage Lab, Dana-Farber Cancer Institute and Novartis …, 2021)
Activity calls are given as the source filed them.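 How the source made its calls: active means maximal inhibition of the USP30 enzyme reaching 30% or more across the dose series; inactive means the rest.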

These compounds were tested against Ubiquitin carboxyl-terminal hydrolase 30 (Homo sapiens) (UniProt Q70CQ3) (assay: ubiquitin-specific protease 30 DUB inhibitors, concentration-effect, biochemical, validation of primary actives (AID 1645865)). Settings: purified USP30, Ub-rhodamine cleavage, fluorescence, 2 h.
Chain of Ubiquitin carboxyl-terminal hydrolase 30 (Homo sapiens) (Q70CQ3 whole entry, looked up): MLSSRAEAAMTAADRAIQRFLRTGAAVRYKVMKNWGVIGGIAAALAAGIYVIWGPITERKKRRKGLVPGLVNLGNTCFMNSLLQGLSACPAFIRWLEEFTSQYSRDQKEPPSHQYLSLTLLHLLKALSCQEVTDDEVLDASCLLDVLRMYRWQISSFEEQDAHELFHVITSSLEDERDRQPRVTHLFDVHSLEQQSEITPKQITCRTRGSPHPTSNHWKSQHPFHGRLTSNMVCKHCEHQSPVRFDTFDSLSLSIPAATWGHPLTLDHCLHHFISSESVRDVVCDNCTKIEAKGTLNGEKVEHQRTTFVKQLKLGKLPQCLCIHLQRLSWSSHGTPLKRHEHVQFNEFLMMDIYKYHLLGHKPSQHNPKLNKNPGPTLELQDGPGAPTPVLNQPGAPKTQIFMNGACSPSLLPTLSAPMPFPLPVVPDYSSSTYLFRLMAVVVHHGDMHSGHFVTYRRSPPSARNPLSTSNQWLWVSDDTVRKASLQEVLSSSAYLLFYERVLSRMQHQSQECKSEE

Compound	IC50
CN(c1ccccc1)c1nc(=O)n(CC(=O)Nc2ccc3c(c2)OCCO3)c2ccccc12	35.9 µM
N#C/C(=C/c1sc(N2CCOCC2)nc1-c1ccccc1)c1ccccn1	> 50 µM (inactive)
CCn1cc(-c2nc(-c3ccccn3)no2)c(=O)c2cc(F)ccc21	23.1 µM
O=C(c1ccc2cc[nH]c2c1)N1CCC(Nc2cccnc2)C1 (configuration not stated)	> 50 µM (inactive)
O=C(Cn1c(=O)n(Cc2ccc(F)cc2)c(=O)c2sccc21)Nc1cccc(Cl)c1	4.47 µM
O=C(NCc1ccc(-c2nc3cnccc3o2)cc1)c1cc2ccccc2o1	2.99 µM
CCOc1ccc(-c2cc3nc(C4CCN(C(=O)OC(C)(C)C)CC4)c(C(=O)Nc4cc(F)ccc4F)cn3n2)cc1	> 50 µM (inactive)
COCCn1c(=S)[nH]c2cc(C(=O)NCCSCc3ccccc3)ccc2c1=O	> 5 µM (inactive)
Cc1cccc2sc(NC(=O)c3nnn(-c4ccc(F)cc4)n3)nc12	> 50 µM (inactive)
COc1ccc(CN(C(=O)c2cc(-c3ccc(C)cc3)on2)C2CCS(=O)(=O)C2)cc1 (configuration not stated)	10.2 µM
COc1ccc(C2CC(=O)Nc3ccc4ccccc4c32)c(OC)c1OC (configuration not stated)	22.3 µM
CC(=O)c1sc(NC(=O)/C=C/c2ccccc2)nc1-c1ccccc1	18 µM
CC(C)C(=O)Nc1ccc(N2CCN(Cc3ccc(F)cc3)C2=O)nc1	37.6 µM
O=C(Nc1cccc(Cl)c1)N1CCC(c2cc(-c3ccco3)n[nH]2)CC1	> 50 µM (inactive)
COc1cccc(C(=O)Nc2ccc(-n3cnnn3)cc2)c1	24.6 µM
Cc1ccc(NC(=O)C2CCN(c3cncnc3N3CCCC3)CC2)cc1	> 50 µM (inactive)
Cc1ccc2c(C)nc(Nc3ncc4c(n3)CC(c3ccco3)CC4=O)nc2c1 (configuration not stated)	< 0.05 µM
COc1ccc(N2C(=O)[C@@H]3[C@H]4c5ccccc5C=CN4C(C(=O)Nc4ccc5c(c4)OCO5)[C@@H]3C2=O)cc1 (some centres not stated)	> 50 µM (inactive)
O=C(COC(=O)Cn1cnc2ccccc21)Nc1ccc2c(c1)OCCO2	> 50 µM (inactive)
CCOc1ccc(N2C(=O)c3ccccc3C2C(=O)NCc2ccccc2OC)cc1 (configuration not stated)	41.5 µM
COC1=C(C2=C(OC)C(=O)c3cc4c(c(O)c3C2=O)C(=O)OC(C)C4)C(=O)c2c(cc3c(c2O)C(=O)OC(C)C3)C1=O (configuration not stated)	> 50 µM (inactive)
Cc1nc(N2CCCC2)ncc1C(=O)Nc1ccc(F)c(F)c1	31.1 µM
O=[N+]([O-])c1ccc(NCC2COc3ccccc3O2)c(Cl)c1 (configuration not stated)	> 50 µM (inactive)
CC1(C)Cc2c(sc3nc(Cc4ccccc4)nc(SCC(=O)Nc4ccccc4)c23)CO1	1.82 µM
Cc1cc(O)c2c3c(c(O)cc2c1)C(=O)c1c(O)cccc1C3=O	> 50 µM (inactive)

Compound	IC50
COc1cc(O)c2c(c1)C1=CC(=O)C(O)=C[C@]1(C)OC2=O	34.6 µM
O=C(Cc1cc(-c2ccc(F)cc2)on1)NCc1ccccc1	18.3 µM
COc1ccccc1-c1ccc(SCC(=O)Nc2ccc3c(c2)OCCO3)nn1	> 50 µM (inactive)
COc1cc2c(c3oc4cccc(O)c4c(=O)c13)C1C=COC1O2 (configuration not stated)	> 50 µM (inactive)
COc1ccc(NC(=O)CN2CCN(c3ccc(C(C)=O)cc3)CC2)cc1S(=O)(=O)N1CCCCC1	36.4 µM
COc1ccc(CC(NC(C)=O)C(=O)NC2CCN(c3c(Cc4ccccc4)c(C)nc4ncnn34)CC2)cc1OC (configuration not stated)	> 50 µM (inactive)
CC(c1ccccc1)n1c(-c2ccc(F)cc2)nc2c(c(=O)c3ccccc3n2C)c1=O (configuration not stated)	2.06 µM
Cc1cc(C)n2nc(CNc3cccc(Cl)c3)nc2n1	> 50 µM (inactive)
CC(=O)CN1CC2(CCN(Cc3ccc(F)cc3)CC2)COc2ccccc2S1(=O)=O	> 50 µM (inactive)
Cc1noc(C)c1COc1cccc(C(=O)Nc2cc(Cl)ccc2-n2cncn2)c1	> 50 µM (inactive)
CCCn1c(=O)c(-c2ccc(C(=O)NCc3ccc(OC)cc3)cc2)nc2cccnc21	1.84 µM
CC1=C[C@@H](C)CC[C@H]2O[C@@H](C3=C(O)C(=O)C(C)=C4O[C@](O)(C=C43)[C@@H](C)C[C@H](C)C1)[C@H](C)[C@@H](O)[C@H]2C	22.2 µM
CN(C)c1ccc(/C=N/NC(=O)c2ccc(Cl)cc2)cc1	10.7 µM
Cc1cc(O)c(=O)cc2c1C[C@H]1CC(C)(C)/C=C/C[C@@]3(C)Oc4cc(=O)c(O)cc(C)c4C[C@@H]3C[C@H](O)[C@]1(C)O2	> 50 µM (inactive)
Cc1noc(-c2cccc(=O)n2CC(=O)Nc2ccc(C)c(C)c2)n1	25 µM
CSc1nc2ncc3c(=O)n(CCc4ccccc4)ccc3n2n1	> 50 µM (inactive)
Cc1ccc(S(=O)(=O)N2CCC3(CC2)NC(=O)c2ccccc2N3)cc1C	27.2 µM
Cc1nc(-c2cccc(NC(=O)C3CCN(c4ccccc4)C3=O)c2)no1 (configuration not stated)	45.3 µM
CC(=O)C1=C(O)[C@]2(O)C(=O)c3c(c(C)c4ccc(C)c(O)c4c3O)C[C@H]2[C@@H](N)C1=O	4.68 µM
Cc1ccc(NC(=O)c2ccc(N3CCOCC3)nn2)cc1F	39.7 µM
CCOc1ccc(CCNC(=O)c2cccc3c2C(=O)N(CCOC)C3)cc1OCC	> 50 µM (inactive)
O=C(O)c1nccnc1C(=O)N1CCc2ccccc2C1	> 50 µM (inactive)
COc1ccc2cc3c(nc2c1)OC(=O)N(CCc1cccc(F)c1)C3	0.0686 µM
CNC(=O)c1cc2c(=O)n3cccc(C)c3nc2n1Cc1ccccc1	2.29 µM
Cc1cccc(C(=O)Nc2ccccc2Sc2nc3c(c(=O)n(C)c(=O)n3C)n2C)c1	32.5 µM

Compound	IC50
O=C(CNS(=O)(=O)c1ccc(F)cc1)N1CCCC(c2nnc3ccccn23)C1 (configuration not stated)	> 50 µM (inactive)
CN(C(=O)c1ccncc1)[C@H]1CC[C@@]2(C)C[C@H](c3ccccc3)C[C@](C)(O2)[C@@H]1O	> 50 µM (inactive)
Fc1cccc(-n2cc(-c3noc(-c4ccccn4)n3)nn2)c1	27 µM
Cc1nc(-c2cccc(NC(=O)c3ccccc3Cl)c2)no1	> 50 µM (inactive)
CC1=C[C@H]2N(c3ccc(C)cc31)[C@H](C(=O)c1cccs1)[C@@H](C(=O)c1ccc(F)cc1)[C@]21C(=O)Nc2ccccc21	> 50 µM (inactive)
COC(=O)c1cc2c(ccn2C)n1CC(=O)NC1CCCC1	> 50 µM (inactive)
O=C(CCc1nnc2n(Cc3ccccc3Cl)c(=O)c3ccccc3n12)NCc1ccccn1	25.5 µM
O=C(NCc1ccccc1Cl)C1CCCN(c2nc3ccsc3c(=O)s2)C1 (configuration not stated)	0.965 µM
CCc1c(C)c(C#N)c2nc3ccccc3n2c1N1CCN(C2CCCC2)CC1	1.7 µM
CC(=O)c1ccc(NC(=O)CC2C(=O)Nc3nc4ccccc4n32)cc1 (configuration not stated)	46.2 µM
COc1cc(=O)c(C(=O)Nc2ccc(C#N)cc2)nn1-c1cccc(F)c1	25.4 µM
Cc1ccc(NC(=O)c2sc(=S)n(CCc3ccccc3)c2N)cc1	1.74 µM
FC(F)(F)c1cccc(N2CCN(c3nc4ccccc4n4nnnc34)CC2)c1	> 50 µM (inactive)
COc1ccc(OC)c(NC(=O)c2cc(Cl)ccc2OC)c1	1.59 µM
COc1c(O)cc(CC(=O)O)c(C(C)=O)c1O	> 5 µM (inactive)
Cc1cc(/C=C2/C(=N)N3C(c4ccccc4)=CSC3=NC2=O)c(C)n1-c1ccc2ccccc2c1	> 50 µM (inactive)
Cc1ccccc1Cc1nc(-c2ccc(=O)[nH]c2)no1	> 50 µM (inactive)
Cc1ccc2cc(CNc3ccccc3)c(=O)n(CC(=O)Nc3ccccc3C)c2c1	40.7 µM
Cc1sc2nc(CN3CCCC3)nc(NCCc3ccc(Cl)cc3)c2c1C	> 50 µM (inactive)
O=c1c2c(ccn1Cc1cc(F)ccc1F)ccn2Cc1cccnc1	> 50 µM (inactive)
CC(=O)c1ccccc1NC(=O)COc1ccc(-c2ccc(C#N)cc2)cc1	2.51 µM
Cc1ccc2[nH]c(=O)c(CN(Cc3cccnc3)C(=O)c3cccc(Cl)c3)cc2c1	> 50 µM (inactive)
CCOC(=O)c1sc2c(c1C)c(=O)n(Cc1ccccc1)c(=O)n2CC(N)=O	45.5 µM
CC(=O)Nc1cc2cc(-n3cccc3)ccc2oc1=O	> 50 µM (inactive)
COCCNC(=O)c1ccn(-c2ccc3ccc(-c4ccncc4)cn23)n1	> 50 µM (inactive)

Compound	IC50
CS(=O)(=O)c1ccc(NC(=O)C2CN(c3nc4c(F)cccc4s3)C2)cc1	31.1 µM
Cc1ccc(Nc2nc(C(=O)NCc3ccc4c(c3)OCO4)cc3occc23)cc1Cl	> 50 µM (inactive)
Cc1oc(-c2ccc(C(=O)NCC3COCCO3)cc2)nc1CN1CCc2ccccc21 (configuration not stated)	> 50 µM (inactive)
COc1ccc(C2/C(=C(\O)c3ccccc3)C(=O)C(=O)N2c2nc3ccc(F)cc3s2)cc1 (configuration not stated)	43.1 µM
COc1ccc(CNC(=O)Nc2cccc3ccccc23)cc1	3.81 µM
Fc1ccc(Oc2nc(CN3CCOCC3)nc3sc4c(c23)CCCC4)c(Cl)c1	> 50 µM (inactive)
CCCCN1CC(C(=O)Nc2ccc(C(=O)Nc3ccc(F)c(Cl)c3)cc2)CC1=O (configuration not stated)	47.5 µM
Nc1c(C(=O)c2cccs2)oc2nc(-c3ccccc3)cc(-c3ccco3)c12	> 50 µM (inactive)
CCCc1nc2c(sc3nc4c(cc32)COC(C)(C)C4)c(=O)n1CC(=O)Nc1ccccc1C	39.7 µM
Cn1cc2cccc(NC(=O)c3ccc(F)cc3)c2n1	> 50 µM (inactive)
COc1cccc(-c2cc(C(=O)N3CCN(c4ccc(N5CCOCC5)nn4)CC3)[nH]n2)c1	38.5 µM
CCOC(=O)N1CCN(S(=O)(=O)c2ccc(C(=O)Nc3ccc(Br)cc3)cc2)CC1	1.65 µM
Cn1c(=O)c2c(ncn2CC(=O)NC2CCCc3ccccc32)n(C)c1=O (configuration not stated)	> 50 µM (inactive)
Cc1noc(C)c1CN1CC[C@H]2O[C@H](C(=O)NCc3ccco3)CC[C@H]21	> 50 µM (inactive)
O=C1N(Cc2ccc(F)cc2)CCN1c1ccc2c(c1)CCC2	> 50 µM (inactive)
Cc1sc(-c2ccc(Cl)nc2)nc1OC(=O)c1ccc(F)cc1F	8.06 µM
Cc1nc(SCC(=O)Nc2cc(Cl)ccc2C)c2oc3ccccc3c2n1	1.22 µM
O=C(Nc1ccccc1)c1ccc2c(c1)CC(c1ccccc1)OC2=O (configuration not stated)	7.72 µM
Cn1c2ccccc2c(=O)c2c(=O)n(Cc3ccccc3)c(-c3ccco3)nc21	1.56 µM
O=C(CC1Oc2ccccc2NC1=O)Nc1ccccc1Br (configuration not stated)	44.3 µM
O=C1COc2ccccc2N1Cc1noc(-c2ccccc2)n1	> 50 µM (inactive)
O=C(CCCCn1c(=O)c2ccccc2n(CC(=O)Nc2ccc(F)c(Cl)c2)c1=O)NCc1ccco1	> 50 µM (inactive)
